Measurements reported in patent US20230365516A1, “COMPOUNDS FOR CANCER THERAPY AND IMAGING” (Washington University, priority 2020, published 2023).
Entries after “also recorded” stand apart in the source; their conditions may differ. Read-outs that look alike come from different tables or passages of the source.

Legend:
[1] = tested on: MM.1S cells; assay: Cell viability assay (CellTiter-Glo), MM.1S cells; type: cell-based, human; details: for EC50: MM1.S
Procedure: (§1) Cell culture and Reagents: Human MM cell lines MM1.S, U266, and OPM2 were cultured in RPMI-1640 medium supplemented with 10% fetal bovine serum, 100 units/mL penicillin, 100 µg/mL streptomycin at 37° C., 5% CO2. PBMCs were purchased from Lonza Bioscience, USA and maintained overnight in RPMI-1640 medium supplemented with 10% fetal bovine serum, 100 units/mL penicillin, 100 µg/mL streptomycin at 37° C., 5% CO2 before using for experiments. IL-6 and IGF-1 were purchased from R&D Systems. PD98059 was obtained from Cell Signaling Technology. Z-VAD-FMK was purchased from Santa Cruz. Bortezomib was obtained from Sigma. LS1090 [2-((7-nitrobenzo[c][1,2,5]oxadiazol-4-yl)thio)ethyl (3-(trifluoromethyl)phenyl)carbamate] was purchased from MolPort, Inc.M. Maybridge library was purchased from Thermo Fisher Scientific, NeXT Diversity 3500 and Diversity SAR 3500 sets were gifts from NCI.
(§2) Cell viability assay: Twenty thousand MM1.S, U266, OPM2, and PBMCs in 100 µL of growth media were added per well in a 96-well plate. The cells were incubated for 24 h with serial dilutions of LS1090 stock solution (10 mM in DMSO) or BTZ stock solution (1 mM in DMSO). Dilutions were prepared in growth media. Cells viability was assessed using the CellTiter-Glo luminescence-based assay (Promega). After adding 100 µL CellTiter-Glo reagent, relative luminescence units (RLU) were measured using the Synergy2 plate reader (BioTek) and expressed as a percentage of the untreated cell controls.

[2] = tested on: U266 cells; assay: Cell viability assay (CellTiter-Glo), U266 cells; type: cell-based, human
Procedure: as §1, §2

[3] = tested on: MM1.S-GFP-Luc disseminated MM xenograft
Excerpt: MM1.S cells stably transfected with GFP-firefly Luciferase (MM1.S-GFP-Luc), when administered intravenously (IV) in Fox Chase SCID beige mice, home to the bone marrow (BM) and are readily detectable by bioluminescence imaging (BLI) after 15-21 days from inoculation. On the third week from tumor inoculation, detecting the presence of the MM lesions in BM in mice with BLI photon flux of 106, we initiated therapy.
The mice were subjected to four dosages of therapy in two days apart over two weeks. The therapy were stopped after four dosages and the tumor progression over time was monitored by in vivo BLI once a week. […] Paralysis or loss of 15% of the original weight were taken as criteria of end point of the mice.
Each treated mouse received two doses per week separated by 3 days over two weeks for a total of four dosages, and BLI was used to monitor tumor progression. […] The endpoint for the study includes paralysis, loss of 20% of the original weight or sudden death due to the tumor burden before any other symptom appeared.
Fox Chase SCID Beige mice (From in house colony) (8-10 weeks old) were implanted with MM1.S cells stably transfected with GFP and CBR Luciferase (MM1.S-GFP-Luc) (2 million cells in 100 µL DPBS per mouse) by tail vein injection. […] The progression of tumor was monitored by whole-body BLI once a week post tumor inoculation. […]

[4] = tested on: chymotrypsin-like activity of proteasomes; assay: Proteasome-Glo Chymotrypsin-Like activity assay in MM.1S cells; type: cell-based, human
Procedure: Proteasome activity assays: MM.1S cells were seeded in a white 96-well plate at a density of 20000 per well. Cells were treated with 1 µML LS1090 or 100 nM Bz for 4 h before accessing chymotrypsin-like activity using Proteasome-Glo™ Chymotrypsin-Like, (Promega). After adding the Proteasome-Glo™ reagent, luminescence was determined as relative light units (RLU) using the Synergy2 plate reader (BioTek).

[5] = tested on: caspase 3/7; assay: Caspase-Glo3/7 assay in MM.1S cells; type: cell-based, human
Procedure: Apoptosis and caspase activation assays: Caspase3/7 activity was measured using Caspase-Glo3/7 Assay System (Promega). MM.1S cells were seeded in a white 96-well plate at a density of 20000 cells per well. Cells were pretreated with 20 µmol/L PD98059 followed by incubation with 1 µM LS1090 for 4 h at 37° C., 5% CO2 before accessing caspase 3/7 activity. Caspase-Glo3/7 reagent was added directly to the cells and incubated for 30 min before recording luminescence using the Synergy2 plate reader (BioTek). Data were represented as a fold change from the untreated cells control. Kinetics of apoptosis and necrosis was monitored using RealTimeGlo Annexin V Apoptosis and Necrosis Assay (Promega). MM.1S cells were treated with 1 µM LS1090 and incubated in the presence of 100 µL the RealTimeGlo Annexin V Apoptosis and Necrosis reagent at 37° C., 5% CO2. The luminescence and fluorescence signals were monitored for 24 h. Relative luminescence units (RLU) and relative fluorescence units (RFU) were measured at different time points using the Synergy2 plate reader (BioTek).

[6] = tested on: IGR Cap1, HT1080, and MDA MB231; assay: Viability of selected cancer cell lines after 24 h with LS1090; type: cell-based; details: 1 µM LS1090, 24 h
Procedure: Cells were treated with LS1090 for 24h, followed by assessment of viability using CellTitler-Glow assay. n=4 for each condition.
Additionally, the viability of selected cancer cell lines were evaluated (IGR Cap1, HT1080, and MDA MB231) after 24 h incubation with LS1090 (see, e.g. FIGS. 9-11).

[7] = tested on: ERK1/2; assay: Western blot of ERK1/2 activation in MM.1S cells; type: cell-based, human
Procedure: ERK1/2 signaling plays an essential role in the cascade of apoptosis-mediated cell death. To interrogate its involvement, MM.1S cells were treated with LS1090 and Western blots used to determine ERK1/2 activation. […] Given that ERK1/2 signaling can utilize caspase-dependent or independent pathways to induce apoptosis, LS1090 mediated activation of caspase 3/7 in MM.1S cells was examined in the presence or absence of ERK1/2 activation inhibitor, PD98059. […] The consequential effect of caspase 3/7 activation on cell death was further validated by determining the viability of LS1090-treated MM1.S cells in the presence or absence of the caspase inhibitor, Z-VAD-fmk.
Cell extract preparation and Western blotting: Protein extracts were prepared by washing cells with PBS (pH 7.4) and suspending in RIPA lysis buffer (20 mM Tris-HCI (pH 7.5), 150 mM NaCl, 1 mM Na2EDTA, 1 mM EGTA, 1% NP-40) containing protease and phosphatase inhibitors (Sigma). Equal amounts of protein, as determined by the BCA protein assay (Thermo Fisher Scientific), were subjected to SDS-PAGE (12% gels; Bio-Rad), followed by transfer to nitrocellulose membrane. […]

[8] = tested on: PBMCs; assay: Cell viability assay (CellTiter-Glo), nontumor PBMCs; type: cell-based; details: 24 h incubation, at the EC50/IC50 for MM1.S (0.49 µM) and higher
Procedure: Cell culture and Reagents: Human MM cell lines MM1.S, U266, and OPM2 were cultured in RPMI-1640 medium supplemented with 10% fetal bovine serum, 100 units/mL penicillin, 100 µg/mL streptomycin at 37° C., 5% CO2. PBMCs were purchased from Lonza Bioscience, USA and maintained overnight in RPMI-1640 medium supplemented with 10% fetal bovine serum, 100 units/mL penicillin, 100 µg/mL streptomycin at 37° C., 5% CO2 before using for experiments. […] Bortezomib was obtained from Sigma.

[9] = tested on: OPM2 cells; assay: Cell viability assay (CellTiter-Glo), OPM2 cells; type: cell-based; details: OPM-2, human OPM2 cells
Procedure: as §1
as §2, with “The cells were incubated for 24 h with serial dilutions of LS1090 stock solution (10 mM in DMSO) or BTZ stock solution (1 mM in DMSO). Dilutions were prepared in growth media.” left out

[10] = tested on: Bcl-2; assay: Western blot of Bcl-2 expression in MM.1S cells; type: cell-based, human
Procedure: (§3) ERK is known to exert its pro-apoptotic function by upregulating p53 and downregulating Bcl-2 expression. […] In contrast, the expression of pro-apoptotic protein, Bax, increased within 1 h post-treatment (FIG. 5H).
(§4) Cell extract preparation and Western blotting: Protein extracts were prepared by washing cells with PBS (pH 7.4) and suspending in RIPA lysis buffer (20 mM Tris-HCI (pH 7.5), 150 mM NaCl, 1 mM Na2EDTA, 1 mM EGTA, 1% NP-40) containing protease and phosphatase inhibitors (Sigma). Equal amounts of protein, as determined by the BCA protein assay (Thermo Fisher Scientific), were subjected to SDS-PAGE (12% gels; Bio-Rad), followed by transfer to nitrocellulose membrane. Membrane were incubated with 1:1000 anti-ERK1/2 (Thr202/Tyr204, anti-phosphoERK1/2 (Thr202/Tyr204), anti-p53, anti-Bcl2, anti-Bax (Cell Signaling Technology) and anti-βActin (Santa Cruz). Secondary antibodies consisted of horseradish peroxidase-conjugated goat anti-rabbit IgG or goat anti-mouse IgG (Sigma). Detection was done by the enhanced chemiluminescence method (Thermo Fisher Scientific).

[11] = tested on: Bax; assay: Western blot of Bax expression in MM.1S cells; type: cell-based, human
Procedure: as §3, §4

[12] = tested on: U266 cells; assay: RealTime-Glo Annexin V Apoptosis and Necrosis Assay, U266 cells; type: cell-based, human; details: monitored 24 h
[13] = tested on: 5TGM1; assay: Growth inhibition of mouse MM cell line 5TGM1; type: cell-based
[14] = tested on: MM.1S cells; assay: RealTime-Glo Annexin V Apoptosis and Necrosis Assay, MM.1S cells; type: cell-based, human
Excerpt: LS1090 activates ERK1/2 to induce apoptosis in MM cells via a p53-independent pathway: Chemotherapeutics exert their effects via multiple cell death pathways, including apoptosis and necrosis. To determine the dominant mechanism of LS1090-induced MM cell death, RealTime-Glo Annexin V Apoptosis and Necrosis Assay were used, which report both pathways simultaneously. The method reports apoptosis by detecting phosphatidylserine on the outer leaflet of cell membranes and necrosis by measuring plasma membrane integrity. […] This delayed necrosis onset points to a cell death mechanism where pro-apoptosis induction transforms into secondary necrosis when phagocytes are not available to remove apoptotic cells.
Apoptosis and caspase activation assays: Caspase3/7 activity was measured using Caspase-Glo3/7 Assay System (Promega). MM.1S cells were seeded in a white 96-well plate at a density of 20000 cells per well. […] Caspase-Glo3/7 reagent was added directly to the cells and incubated for 30 min before recording luminescence using the Synergy2 plate reader (BioTek). […] Kinetics of apoptosis and necrosis was monitored using RealTimeGlo Annexin V Apoptosis and Necrosis Assay (Promega). […] The luminescence and fluorescence signals were monitored for 24 h. Relative luminescence units (RLU) and relative fluorescence units (RFU) were measured at different time points using the Synergy2 plate reader (BioTek).

[15] = tested on: p53; assay: Western blot of p53 expression in MM.1S cells; type: cell-based, human
Procedure: as §3, §4

In the case of Z-VAD-fmk [reference compound], the “LS1090-induced cell death on co-incubation with Z-VAD-fmk” value ([1]; MM1.S cells, p< 0.0001) is reported as “inhibited this event”.

In the case of `CC(C)C[C@H](NC(=O)[C@H](Cc1ccccc1)NC(=O)c1cnccn1)B(O)O` [BTZ, Bortezomib, reference compound], the “sensitivity of U266 cells to BTZ relative to MM.1S cells (less sensitive)” value ([2]; U266 versus MM.1S) is reported as 10 fold, the “course of disease, BTZ” value ([3]; 0.5 mg/kg or 1.0 mg/kg IP, same regimen) is reported as “experienced early remission and relapsed after 6-week post-inoculation” and the “toxicity of BTZ dose over 1 mg/Kg” value ([3]; BTZ over 1 mg/Kg IP) is reported as “lethal effect on mice after the second dose”. The EC50 ([1]; Homo sapiens, MM.1S cells, read-out: EC50 of BTZ alone) was 2 nM, the “EC50 of BTZ with increasing concentration ratio of LS1090 to BTZ” value ([1]; MM.1S cells, in combination with LS1090) was 1.4 nM and the “chymotrypsin-like activity in MM.1S cells, BTZ” value ([4]; 0.1 µM, 4 h) was “efficiently inhibits”.

With `COc1cccc(-c2cc(=O)c3ccccc3o2)c1N` [PD98059, reference compound] the “LS1090-triggered caspase 3/7 activity in the presence of PD98059” value ([5]; MM.1S cells pretreated with 20 µmol/L PD98059, then 1 µM LS1090 4 h) was “inhibited”.

`O=C(Nc1cccc(C(F)(F)F)c1)OCCSc1ccc([N+](=O)[O-])c2nonc12` [LS1090, 2-((7-nitrobenzo[c][1,2,5]oxadiazol-4-yl)thio)ethyl (3-(trifluoromethyl)phenyl)carbamate] was tested, and the “effect on viability of selected cancer cell lines” value [6] was “had an effect on all tested cancer cell lines”, the cytotoxicity at 1 µM ([2]; Homo sapiens, U-266, 1 µM LS1090, read-out: decrease of viability of U266 cells) was 55% and the IC50 ([2]; U-266, human U266 cells) was 440 nM. For the same molecule, the EC50 ([2]; U-266, human U266 cells, 24 h) was 440 nM, the “duration of activated ERK1/2 state” value [7] was “sustained over 3 h” and the “time to ERK1/2 phosphorylation post-treatment” value [7] was “less than 1 h”. For the same molecule, the “increase in caspase 3/7 activity” value ([5]; MM.1S cells, 1 µM LS1090, 4 h incubation, fold change from untreated cells) was “over seven-fold increase”, the “cytotoxicity on PBMCs” value [8] was “significant toxic effect; also recorded: significant cytotoxicity” and the IC50 [9] was 490 nM. The EC50 ([9]; 24 h) was 490 nM, the “Bcl-2 expression after treatment” value [10] was “did not downregulate” and the “time to increased Bax expression post-treatment” value [11] was no more than 1 h. The apoptosis-necrosis time pattern [12] was “same apoptosis-necrosis pattern”, the cells eradicated ([1]; LS1090-treated MM1.S cells, absence of Z-VAD-fmk) was 60% and the EC50 ([1]; human MM.1S cells, 24 h, read-out: EC50, MM.1S) was 490 nM. The “cytotoxicity in the presence of recombinant IL-6 or IGF-1” value ([1]; MM.1S cells, 24 h) was “neither recombinant IL-6 nor IGF-1 blocked”, the IC50 ([1]; human MM1.S cells) was 490 nM and the IC50 ([13]; 5TGM1, mouse MM cell line 5TGM) was 320 nM. For the same molecule, the EC50 ([13]; mouse MM cell line 5TGM1) was 320 nM, the “chymotrypsin-like activity in MM.1S cells, LS1090” value ([4]; 4 h incubation at ten-fold the concentration of BTZ) was “did not significantly perturb” and the “time of apoptosis peak post-treatment” value ([14]; MM cells treated with LS1090 (1 µM)) was “about 10 h”. For the same molecule, the apoptosis-necrosis time pattern ([14]; MM.1S cells, monitored 24 h) was “necrosis lagged apoptosis” and the “p53 expression after treatment” value [15] was “lack of p53 enhancement”.
